The values below come from US20220280526A1, “AGENT FOR THE TREATMENT OF PSORIASIS” (EBERHARD KARLS UNIVERSITAET TUEBINGEN MEDIZINISCHE FAKULTAET, priority 2019, published 2022).

One assay deals with EZH2. Nature of the assay: EZH2 phosphorylation in keratinocytes (immunoblot). The note with it: IL-36α- or IL-17A/TNFα-treated keratinocytes. In kind it is cell-based, human. From the text:
HaCaT cells were maintained in DMEM with 10% FCS and antibiotics. Human primary keratinocytes were freshly isolated from foreskin and maintained in CnT-07S medium with gentamycin (CELLnTEC). Recombinant human IL-36α (aa 6-158) and mouse IL-36α (aa 6-160) were purchased from R&D Systems. Recombinant IL-17A (11340174), TNFα (11343013) and IL-1β (11340013) were ordered from Immunotools. Flagellin (vac-fla) and poly I:C (vac-pic) were purchased from Invivogen. In cell culture experiments, the cytokines were used at the following concentrations, as described previously: IL-36α (100 ng/mL), IL-17A (200 ng/mL), TNFα (10 ng/mL) and IL-1β (100 ng/mL). Flagellin was applied at 10 ng/mL and poly(I:C) was added at a final concentration of 100 ng/mL. […] When indicated, cells were starved for 2 h prior to cytokine treatment, by removing cell culture supplements from the growth medium.
Western blot analysis was performed as described before. […]

In a further assay the test system is EZH2-STAT3 interaction. In words: Co-immunoprecipitation of EZH2 and STAT3 in HaCaT cells. The format is cell-based. Conditions: 30 min IL-36α. As for the experimental part: Cells were lysed by mechanical disruption using standard lysis buffer (50 mM Tris-HCl pH 7.5, 150 mM NaCl, 1% NP-40, lx Protease inhibitor cocktail, Roche). Subsequently, lysates were sonicated for 5 minutes at high power (Bioruptor, Diagenode), followed by pre-clearing of the lysates with protein A/G PLUS agarose beads (Santa Cruz, sc-2003) for 1 h at 4° C. Precleared lysates were incubated either with antibodies specific for CDK4 (Cell Signaling, 12790), CDK6 (Sigma, HPA002637), EZH2 (Cell Signaling, 5246), STAT3 (MA1-13042, Thermo Fisher) or β-Gal antibody (sc-19119, Santa Cruz) as an IgG control, overnight at 4° C. For endogenous IPs immune complexes were precipitated with protein A/G PLUS agarose beads and eluted by 6×SDS-PAGE sample buffer.

The next assay has as its system NFKBIZ (IκBζ) promoter. In words: Luciferase assay of NFKBIZ promoter activity in HaCaT cells. In kind it is cell-based. Conditions: IL-36α-stimulated HaCaT cells, 24 h. As for the experimental part:
Luciferase constructs were generated as described; Muller et al. (2018; loc. Cit.). 1*10^4 HEK293T cells were transfected for 24 h using HBS buffer and CaCl2 and a mixture of 400 ng luciferase vector and 100 ng TK-Renilla vector. For expression of other factors, the following concentrations were used: 70 ng p65, 200 ng cJUN, STAT3 or EZH2 constructs and 500 ng CDK4, CDK6 or cyclin D expression constructs (not shown). For transfection of HaCaT cells, 3*10^5 cells were transfected for 4 h using Lipofectamine 3000 and a mixture of 800 ng luciferase vector, 200 ng TK-Renilla vector and 4 μg expression or control plasmids according to the manufacturer's instructions (Thermo Fisher). 36 h after transfection, luciferase activity was measured with the Dual Luciferase Reporter Assay Kit (Promega). Expression of the reporter constructs was calculated as the fold induction over unstimulated transfected cells from data of three independent experiments.

The test system of the next assay is IκBζ expression. In words: IκBζ expression in synchronized HaCaT cells stimulated with IL-36α. In kind it is cell-based. Conditions: 1 h IL-36α. As for the experimental part: Synchronization of the cells with a double thymidine block was performed as described before. After the second thymidine block, cells were released in normal medium. At 0, 4, 10 and 14 h after release, cells were stimulated with IL-36α and/or abemaciclib for 1 h. Propidium iodide staining was performed by flow cytometry (LSRII, Becton Dickson) to detect the cell cycle phase at the time point of cell harvest.
Western blot analysis was performed as described before. The following antibodies were used and purchased from Cell Signaling: anti-IκBζ (9244), anti-phospho-STAT3 at Tyr705 (9145), anti-phospho-STAT3 at Ser727 (9134), anti-STAT3 (12640), anti-p65 (8242), anti-EZH2 (5246), anti-pRB (phospho-RB at Ser807/811; 8516), anti-FoxM1 (5436), anti-H3 (4499), anti-CDK4 (12790), anti-CDK6 (13331), anti-CDK9 (2316), anti-cyclin D1 (2978), anti-cyclin D2 (3741), anti-cyclin D3 (2936), anti-cJUN (9165), anti-H3K27me3 (9733), anti-GAPDH (2118), anti-H3 (9715) and anti-β-actin (3700). Anti-β-Gal (sc377257) and anti-GFP (sc9996) were obtained from Santa Cruz Biotechnology. Anti-pEZH2 at T345 (61242) anti-pEZH2 at T487 (12820) were purchased from Active Motif and anti-pan-methyl-lysine antibody was purchased from Enzo (ADI-KAP-TF121-E). For detection of mouse IκBζ, a self-made antibody raised against peptides […] (SEQ ID NO:3) and […] (SEQ ID NO:4) was applied.

Assay [1] concerns IL-36-mediated psoriasis-like dermatitis. Nature of the assay: IL-36α-triggered psoriasis-like dermatitis mouse model, topical treatment of ears. In kind it is in vivo, C57BL/6 mice. The procedure:
Experiments were conducted in accordance with the German law guidelines of animal care. […] At day 7, mice were sacrificed and analysed. For IL-36α-mediated psoriasis induction, ears of male C57BL/6 mice (8-12 weeks old) were treated by intradermal injections using 1 μg murine IL-36α (aa 8-160, R&D) or PBS control for 5 consecutive days. […] Inhibitors were topically applicated 6 h before intradermal injections of IL-36α or PBS were applied. Mice were sacrificed and analysed at day 6. Ear sections from mice were fixed in 10% formalin (Carl Roth) and subsequently embedded in paraffin. 5-μm sections were prepared and incubated with the following antibodies from Cell Signaling: pSTAT3 (9145), pRB (8516) and H3K27me3 (9733). For staining of human skin samples, EZH2 antibody (Cell Signaling, 5246) was used. Antigen retrieval was performed in 1 mM EDTA pH 8.0 for pSTAT3, and 10 mM citrate buffer pH 6.0+0.5% Triton X-100 for EZH2, H3K27me3 and pRB. After incubation with peroxidase-coupled secondary antibodies, sections were stained with DAB substrate.

Consider Abemaciclib mesylate, for which the “inducible phosphorylation of EZH2 at threonine 345 (T345)” value with EZH2 was “completely abrogated”. For the same substance, in the assay on EZH2-STAT3 interaction, the “interaction of EZH2 with STAT3” value is on record as “abrogate”. The “expression of luciferase construct harboring the NFKBIZ (IκBζ) promoter” value with NFKBIZ (IκBζ) promoter is recorded as “abrogated”. Moreover, the “IL-36α-triggered IκBζ induction in all phases of the cell cycle” value in the assay with IκBζ expression is “completely suppressed”. Further, the “IL-36-mediated expression of IκBζ, phosphorylation of EZH2 at T345 and activation of STAT3 (pSTAT3 Y705) in skin” value in assay [1] (immunoblot of ear skin at day 6) is “suppressed”. Further, the “keratinocyte hyperproliferation and immune cell infiltration” value in assay [1] (intradermal IL-36α 5 days, topical inhibitor, abemaciclib 0.02 mg, CPI-169 0.05 mg, day 6) is listed as “effectively blocked”. Further, in assay [1] (qPCR of skin samples), the “IκBζ target gene expression and key cytokine expression (Il17a, Il23a)” value was “effectively blocked”.
